What follows are molecules tested on Influenza type B (cell culture adapted strain B/Lee/40, ATCC VR-1535) (assay: Influenza antiviral assay: inhibition of virus-induced cytopathic effects (CPE) in MDCK cells, XTT dye reduction). Settings: Influenza B virus, MDCK, 96 h, strain B/Lee/40, MDCK cells, CPE inhibition at 4 days.
Assay type: cell-based
Work on `CC(C)CN1C(=O)c2c(O)c(=O)ccn2N(C23c4ccccc4CC2Cc2c3ccc(F)c2F)C1C` (centres unmarked) [Compound A127] yielded an EC50 of 250 to 375 nM.
Work on `CC1N(CC2CC2)C(=O)c2c(O)c(=O)ccn2N1C12c3ccccc3CC1Cc1c2ccc(F)c1F` (centres unmarked) [Compound A128] yielded an EC50 of 125 to 250 nM.
In the case of `CC1N(CC2CC2)C(=O)c2c(O)c(=O)ccn2N1C12c3ccccc3CC1Cc1c(F)cccc12` (centres unmarked) [Compound A129], the EC50 is reported as 125 to 250 nM.
`O=C1c2c(O)c(=O)ccn2N(C23c4cccc(F)c4CC2Cc2c(F)cccc23)CN1CC1CCCCO1` (centres unmarked) [Compound A130] gave an EC50 of 125 to 250 nM.
Molecule `O=C1c2c(O)c(=O)ccn2N(C23c4ccccc4CC2Cc2c3ccc(F)c2F)CN1CC1CCCCO1` (centres unmarked) [Compound A131] has an EC50 of 125 to 250 nM.
With `CCCN1C(=O)c2c(O)c(=O)ccn2N(C23c4ccccc4CC2Cc2c(Cl)cccc23)C1C` (centres unmarked) [Compound A132] the EC50 was 250 to 375 nM.
For `O=C1c2c(O)c(=O)ccn2N(C23c4ccccc4CC2Cc2c(F)cccc23)CN1CC1CCCCO1` (centres unmarked) [Compound A133], the EC50 was 125 to 250 nM.
Work on `CC1N(CC(F)F)C(=O)c2c(O)c(=O)ccn2N1C12c3ccccc3CC1Cc1c2ccc(F)c1F` (centres unmarked) [Compound A136] yielded an EC50 of 250 to 375 nM.
`CCN1C(=O)c2c(O)c(=O)ccn2N(C23c4ccccc4CC2Cc2c(F)cccc23)C1C` (centres unmarked) [Compound A138] gave an EC50 of less than 125 nM.
With `CC1N(CC(F)F)C(=O)c2c(O)c(=O)ccn2N1C12c3ccccc3CC1Cc1c(F)cccc12` (centres unmarked) [Compound A139] the EC50 was 125 to 250 nM.
For `CC1N(CC2CC2)C(=O)c2c(O)c(=O)ccn2N1C12c3ccccc3CC1Cc1c(Cl)cccc12` (centres unmarked) [Compound A140], the EC50 was 250 to 375 nM.
For `CC1N(C2CCC2)C(=O)c2c(O)c(=O)ccn2N1C12c3ccccc3CC1Cc1c(F)cccc12` (centres unmarked) [Compound A141], the EC50 was 250 to 375 nM.
With `Cc1cc(CN2CN(C34c5ccccc5CC3Cc3ccccc34)n3ccc(=O)c(O)c3C2=O)no1` (centres unmarked) [Compound A144] the EC50 was less than 125 nM.
With `CN1CN(C23c4ccccc4CC2Cc2cccc(F)c23)n2ccc(=O)c(O)c2C1=O` (centres unmarked) [Compound A145] the EC50 was less than 125 nM.
`CN1CN(C23c4ccccc4CC2Cc2c3ccc(Cl)c2Cl)n2ccc(=O)c(O)c2C1=O` (centres unmarked) [Compound A146] was tested, and the EC50 was 125 to 250 nM.
Molecule `CCN1CN(C23c4ccccc4CC2(C)Cc2ccccc23)n2ccc(=O)c(O)c2C1=O` (centres unmarked) [Compound A147] has an EC50 of 125 to 250 nM.
In the case of `CCCN1CN(C23c4ccccc4CC2Cc2c3ccc(F)c2F)n2ccc(=O)c(O)c2C1=O` (centres unmarked) [Compound A148], the EC50 is reported as 125 to 250 nM.
With `CC(C)CN1CN(C23c4ccccc4CC2Cc2c3ccc(F)c2F)n2ccc(=O)c(O)c2C1=O` (centres unmarked) [Compound A149] the EC50 was less than 125 nM.
`CN1CN(C23c4ccccc4CC2(C)Cc2ccccc23)n2ccc(=O)c(O)c2C1=O` (centres unmarked) [Compound A150] showed an EC50 of less than 125 nM.
With `CCN1CN(C23c4cccc(F)c4CC2Cc2c(Cl)cccc23)n2ccc(=O)c(O)c2C1=O` (centres unmarked) [Compound A151] the EC50 was 125 to 250 nM.
Molecule `CCN1CN(C23c4ccccc4CC2(OC)Cc2ccccc23)n2ccc(=O)c(O)c2C1=O` (centres unmarked) [Compound A152] has an EC50 of 125 to 250 nM.
`CCCN1CN(C23c4cccc(F)c4CC2Cc2c(F)cccc23)n2ccc(=O)c(O)c2C1=O` (centres unmarked) [Compound A153] showed an EC50 of 125 to 250 nM.
`CC(C)CN1CN(C23c4cccc(F)c4CC2Cc2c(F)cccc23)n2ccc(=O)c(O)c2C1=O` (centres unmarked) [Compound A156] gave an EC50 of 125 to 250 nM.
`CCN1CN(C23c4ccccc4CC2(CC)Cc2ccccc23)n2ccc(=O)c(O)c2C1=O` (centres unmarked) [Compound A157] gave an EC50 of 125 to 250 nM.
`CC1N(C)C(=O)c2c(O)c(=O)ccn2N1C12c3ccccc3CC1Cc1ccccc12` (centres unmarked) [Compound A158] showed an EC50 of 125 to 250 nM.
`CN1CN(C23c4ccccc4CC2Cc2c3ccc(Cl)c2F)n2ccc(=O)c(O)c2C1=O` (centres unmarked) [Compound A160] gave an EC50 of less than 125 nM.
Molecule `CCN1CN(C23c4ccccc4CC2Cc2c3ccc(Cl)c2Cl)n2ccc(=O)c(O)c2C1=O` (centres unmarked) [Compound A161] has an EC50 of less than 125 nM.
`CCC12Cc3ccccc3C1(N1CN(C)C(=O)c3c(O)c(=O)ccn31)c1ccccc1C2` (centres unmarked) [Compound A162] showed an EC50 of less than 125 nM.
`CCN1CN(C23c4ccccc4CC2(C)Cc2c3ccc(F)c2F)n2ccc(=O)c(O)c2C1=O` (centres unmarked) [Compound A164] was tested, and the EC50 was less than 125 nM.
In the case of `CN1CN(C23c4ccccc4CC2(C)Cc2c3ccc(F)c2F)n2ccc(=O)c(O)c2C1=O` (centres unmarked) [Compound A165], the EC50 is reported as less than 125 nM.
`CCC1N(C)C(=O)c2c(O)c(=O)ccn2N1C12c3ccccc3CC1Cc1ccccc12` (centres unmarked) [Compound A166] gave an EC50 of less than 125 nM.
`CC(C)N1CN(C23c4ccccc4CC2(C)Cc2c3ccc(F)c2F)n2ccc(=O)c(O)c2C1=O` (centres unmarked) [Compound A167] was tested, and the EC50 was less than 125 nM.

— patent US12037333B2, “Pyridopyrazine and pyridotriazine inhibitors of influenza virus replication” (priority 2018, dated 2024)
